According to patent publication US11548893B2 (priority 2017, dated 2023):
Like-named read-outs stand apart in the source and are kept apart here.

Assays:
hERG ion channel = hERG ion channel (Homo sapiens, UniProt Q12809); assay: biochemical
Cyp-p450 1A2 = Cyp-p450 1A2 (Homo sapiens, UniProt P05177)
Cyp-p450 3A4 = Cyp-p450 3A4 (Homo sapiens, UniProt P08684)
[1] = pH 7
[2] = tested on: MARV (full-length glycoprotein, VSV pseudotype); assay: microbe, parasite or virus in culture; type: cell-based, Marburg marburgvirus; conditions: read-out: EC50 Pseudotype Assays MARV
in vivo = conditions: male, CD-1, mouse
in vitro [3] = conditions: African green monkey, Cytotox CC50
EBOV (Mayinga) = assay: microbe, parasite or virus in culture; type: cell-based, Ebola virus; conditions: for EC50: Zaire ebolavirus, Vero
[4] = mouse, in vivo
in vitro [5] = conditions: human
in vitro [6] = conditions: African green monkey
in vitro [7] = conditions: human, Caco-2
P-gp = P-gp (Homo sapiens, UniProt P08183)
[8] = tested on: BDBV (mucin-deleted glycoprotein, VSV pseudotype); assay: microbe, parasite or virus in culture; type: cell-based, Bundibugyo ebolavirus; conditions: read-out: EC50 Pseudotype Assays BDBV
physchem = conditions: pH 7, kinetic from dmso stock
Cyp-p450 2C19 = Cyp-p450 2C19 (Homo sapiens, UniProt P33261)
[9] = tested on: SUDV (glycoprotein, VSV pseudotype); assay: microbe, parasite or virus in culture; type: cell-based, Sudan ebolavirus; conditions: read-out: EC50 Pseudotype Assays SUDV
[10] = tested on: EBOV_FL: full-length Ebola Zaire GP (VSV pseudotype); assay: microbe, parasite or virus in culture; type: cell-based, Zaire ebolavirus; conditions: read-out: EC50 Pseudotype Assays EBOV_FL
in vitro [11] = conditions: mouse
[12] = tested on: EBOV (mucin-deleted glycoprotein, VSV pseudotype); assay: microbe, parasite or virus in culture; type: cell-based, Zaire ebolavirus; conditions: read-out: EC50 Pseudotype Assays EBOV
Cyp-p450 2D6 = Cyp-p450 2D6 (Homo sapiens, UniProt P10635)
Cyp-p450 2B6 = Cyp-p450 2B6 (Homo sapiens, UniProt P20813)
Cyp-p450 2C9 = Cyp-p450 2C9 (Homo sapiens, UniProt P11712)
[13] = tested on: VSV (native full-length glycoprotein); assay: microbe, parasite or virus in culture; type: cell-based; conditions: Vesicular stomatitis virus, Vero, read-out: EC50 Pseudotype Assays VSV
[14] = human, in vivo; cited from earlier work
[15] = in vivo, po, 150 mg/kg; cited from earlier work
native EBOV virus = conditions: read-out: published EC50 against native EBOV virus; cited from earlier work
Ebola virus infection = conditions: human, in vivo; cited from earlier work
Vero cells = conditions: African green monkey
[16] = microsomes, 1 h
Sudan Gulu [17] = assay: organism not typed; conditions: read-out: Sudan Gulu EC50
[18] = microsomes, 1 h; remark: listed apart in the source
[19] = microsomes, 1 h; remark: listed apart in the source
Sudan Gulu [20] = tested on: Sudan Gulu
[21] = microsomes, 1 h; remark: listed apart in the source
Ebola Zaire [22] = tested on: Ebola Zaire
Sudan Gulu [23] = tested on: Sudan Gulu; remark: listed apart in the source
Ebola Zaire [24] = assay: microbe, parasite or virus in culture; conditions: Zaire ebolavirus, read-out: Ebola Zaire EC90
Ebola Zaire [25] = tested on: Ebola Zaire; remark: listed apart in the source
Ebola Zaire [26] = assay: microbe, parasite or virus in culture; conditions: Zaire ebolavirus, HeLa, read-out: Ebola Zaire EC50
Sudan Gulu [27] = assay: organism not typed; conditions: HeLa, read-out: Sudan Gulu EC50
Sudan Gulu [28] = assay: organism not typed; conditions: read-out: Sudan Gulu EC50; remark: listed apart in the source
Ebola Zaire [29] = assay: microbe, parasite or virus in culture; conditions: Zaire ebolavirus, read-out: Ebola Zaire EC50
Ebola Zaire [30] = tested on: Ebola Zaire; remark: listed apart in the source
[31] = Vesicular stomatitis virus, Vero, 24 h

Sequence of Cyp-p450 3A4 (P08684 whole entry): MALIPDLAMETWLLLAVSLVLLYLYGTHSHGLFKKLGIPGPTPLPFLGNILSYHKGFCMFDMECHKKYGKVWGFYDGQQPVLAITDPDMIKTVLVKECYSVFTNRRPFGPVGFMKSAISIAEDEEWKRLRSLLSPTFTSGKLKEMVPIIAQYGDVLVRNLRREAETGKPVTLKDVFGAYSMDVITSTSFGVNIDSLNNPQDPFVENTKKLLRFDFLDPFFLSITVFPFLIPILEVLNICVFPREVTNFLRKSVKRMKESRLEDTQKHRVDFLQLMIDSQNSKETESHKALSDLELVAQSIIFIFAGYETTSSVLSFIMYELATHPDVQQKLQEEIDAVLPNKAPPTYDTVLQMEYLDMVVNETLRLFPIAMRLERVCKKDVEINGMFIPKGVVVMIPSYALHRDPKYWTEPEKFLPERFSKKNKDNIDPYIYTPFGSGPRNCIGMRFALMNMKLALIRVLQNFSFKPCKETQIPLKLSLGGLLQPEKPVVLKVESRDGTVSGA
Sequence of P-gp (P08183 whole entry): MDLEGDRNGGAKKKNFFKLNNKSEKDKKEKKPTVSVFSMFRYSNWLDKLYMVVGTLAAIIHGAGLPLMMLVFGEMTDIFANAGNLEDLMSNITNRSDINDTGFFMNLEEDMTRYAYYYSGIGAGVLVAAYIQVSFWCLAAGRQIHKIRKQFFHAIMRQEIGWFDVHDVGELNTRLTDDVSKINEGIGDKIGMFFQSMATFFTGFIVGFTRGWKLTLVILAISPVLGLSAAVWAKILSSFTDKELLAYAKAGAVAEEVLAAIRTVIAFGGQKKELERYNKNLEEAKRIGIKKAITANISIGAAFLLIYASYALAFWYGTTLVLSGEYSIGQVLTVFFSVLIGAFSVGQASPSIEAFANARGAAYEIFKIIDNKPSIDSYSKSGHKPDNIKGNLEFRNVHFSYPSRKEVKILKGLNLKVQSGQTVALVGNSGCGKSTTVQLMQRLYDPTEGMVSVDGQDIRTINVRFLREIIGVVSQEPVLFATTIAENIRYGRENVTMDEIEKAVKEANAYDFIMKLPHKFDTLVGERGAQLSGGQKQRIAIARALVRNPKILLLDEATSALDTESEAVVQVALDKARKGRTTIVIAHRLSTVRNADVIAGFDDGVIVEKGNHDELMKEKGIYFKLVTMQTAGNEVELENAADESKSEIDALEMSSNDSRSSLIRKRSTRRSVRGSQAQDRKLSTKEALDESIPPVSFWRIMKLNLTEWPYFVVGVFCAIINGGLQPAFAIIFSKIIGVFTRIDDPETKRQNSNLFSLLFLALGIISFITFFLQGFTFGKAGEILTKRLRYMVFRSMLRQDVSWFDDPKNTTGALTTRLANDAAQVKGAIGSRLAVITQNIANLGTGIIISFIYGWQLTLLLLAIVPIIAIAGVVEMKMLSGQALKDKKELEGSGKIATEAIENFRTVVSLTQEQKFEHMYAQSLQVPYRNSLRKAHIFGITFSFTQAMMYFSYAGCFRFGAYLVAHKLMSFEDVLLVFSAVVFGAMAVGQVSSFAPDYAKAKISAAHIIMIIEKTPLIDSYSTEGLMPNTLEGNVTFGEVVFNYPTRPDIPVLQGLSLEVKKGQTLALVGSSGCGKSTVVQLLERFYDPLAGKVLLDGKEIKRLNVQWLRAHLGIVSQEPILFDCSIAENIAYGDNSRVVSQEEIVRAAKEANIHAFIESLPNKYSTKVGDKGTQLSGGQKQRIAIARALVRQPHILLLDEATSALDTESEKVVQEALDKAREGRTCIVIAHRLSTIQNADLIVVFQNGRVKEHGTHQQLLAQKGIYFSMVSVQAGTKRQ
Sequence of Cyp-p450 2B6 (P20813 whole entry): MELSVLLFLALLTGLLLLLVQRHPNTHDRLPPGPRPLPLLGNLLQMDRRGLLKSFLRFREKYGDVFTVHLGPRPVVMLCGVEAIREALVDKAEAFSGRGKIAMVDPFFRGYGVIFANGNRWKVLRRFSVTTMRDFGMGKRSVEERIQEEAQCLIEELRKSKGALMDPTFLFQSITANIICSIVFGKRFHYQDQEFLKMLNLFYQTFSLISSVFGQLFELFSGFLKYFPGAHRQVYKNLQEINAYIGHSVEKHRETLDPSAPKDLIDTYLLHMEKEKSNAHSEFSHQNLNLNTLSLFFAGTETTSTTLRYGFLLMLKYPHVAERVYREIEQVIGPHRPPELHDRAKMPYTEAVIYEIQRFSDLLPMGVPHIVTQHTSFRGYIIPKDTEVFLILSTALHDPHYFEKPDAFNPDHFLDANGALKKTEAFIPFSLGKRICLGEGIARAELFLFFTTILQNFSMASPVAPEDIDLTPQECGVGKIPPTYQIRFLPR
Sequence of Cyp-p450 2D6 (P10635 whole entry): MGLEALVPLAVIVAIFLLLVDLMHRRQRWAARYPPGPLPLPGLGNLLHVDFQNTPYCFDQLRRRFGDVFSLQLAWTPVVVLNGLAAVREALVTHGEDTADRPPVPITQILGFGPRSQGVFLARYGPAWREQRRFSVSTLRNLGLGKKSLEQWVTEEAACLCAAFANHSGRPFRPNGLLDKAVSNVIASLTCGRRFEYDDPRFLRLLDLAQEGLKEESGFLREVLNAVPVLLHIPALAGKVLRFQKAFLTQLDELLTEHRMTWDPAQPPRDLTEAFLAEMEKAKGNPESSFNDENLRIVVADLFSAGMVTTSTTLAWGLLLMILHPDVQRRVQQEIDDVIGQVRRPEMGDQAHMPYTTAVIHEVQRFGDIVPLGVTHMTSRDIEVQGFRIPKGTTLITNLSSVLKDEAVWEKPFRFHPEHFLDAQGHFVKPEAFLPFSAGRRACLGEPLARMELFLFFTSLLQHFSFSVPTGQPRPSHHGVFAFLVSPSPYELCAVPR
Sequence of Cyp-p450 2C19 (P33261 whole entry): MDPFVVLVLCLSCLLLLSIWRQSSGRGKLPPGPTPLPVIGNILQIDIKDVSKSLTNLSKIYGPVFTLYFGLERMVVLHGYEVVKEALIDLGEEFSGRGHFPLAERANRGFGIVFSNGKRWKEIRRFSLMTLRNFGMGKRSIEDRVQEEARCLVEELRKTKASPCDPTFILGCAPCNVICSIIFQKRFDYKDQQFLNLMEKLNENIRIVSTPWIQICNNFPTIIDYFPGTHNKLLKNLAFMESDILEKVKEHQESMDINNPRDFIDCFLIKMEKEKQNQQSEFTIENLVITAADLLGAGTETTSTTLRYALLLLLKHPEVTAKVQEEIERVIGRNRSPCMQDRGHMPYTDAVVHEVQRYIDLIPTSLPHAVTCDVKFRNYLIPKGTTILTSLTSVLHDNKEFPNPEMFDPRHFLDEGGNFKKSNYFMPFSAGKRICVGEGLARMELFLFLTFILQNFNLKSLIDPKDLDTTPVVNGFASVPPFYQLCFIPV
Sequence of Cyp-p450 1A2 (P05177 whole entry): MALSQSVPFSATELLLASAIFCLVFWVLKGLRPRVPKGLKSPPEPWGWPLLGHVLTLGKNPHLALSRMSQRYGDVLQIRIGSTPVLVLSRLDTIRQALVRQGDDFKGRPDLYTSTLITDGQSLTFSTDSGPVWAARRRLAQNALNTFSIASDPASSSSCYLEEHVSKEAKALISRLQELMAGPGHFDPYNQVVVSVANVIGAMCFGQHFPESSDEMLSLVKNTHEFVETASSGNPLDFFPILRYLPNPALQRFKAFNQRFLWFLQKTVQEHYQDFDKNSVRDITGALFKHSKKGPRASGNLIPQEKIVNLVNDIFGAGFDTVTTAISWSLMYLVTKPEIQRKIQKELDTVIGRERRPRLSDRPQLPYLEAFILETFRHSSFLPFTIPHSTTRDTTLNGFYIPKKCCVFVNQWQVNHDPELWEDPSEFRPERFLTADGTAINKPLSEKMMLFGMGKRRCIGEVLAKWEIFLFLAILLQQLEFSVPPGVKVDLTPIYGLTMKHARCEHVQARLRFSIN
Sequence of hERG ion channel (Q12809 whole entry): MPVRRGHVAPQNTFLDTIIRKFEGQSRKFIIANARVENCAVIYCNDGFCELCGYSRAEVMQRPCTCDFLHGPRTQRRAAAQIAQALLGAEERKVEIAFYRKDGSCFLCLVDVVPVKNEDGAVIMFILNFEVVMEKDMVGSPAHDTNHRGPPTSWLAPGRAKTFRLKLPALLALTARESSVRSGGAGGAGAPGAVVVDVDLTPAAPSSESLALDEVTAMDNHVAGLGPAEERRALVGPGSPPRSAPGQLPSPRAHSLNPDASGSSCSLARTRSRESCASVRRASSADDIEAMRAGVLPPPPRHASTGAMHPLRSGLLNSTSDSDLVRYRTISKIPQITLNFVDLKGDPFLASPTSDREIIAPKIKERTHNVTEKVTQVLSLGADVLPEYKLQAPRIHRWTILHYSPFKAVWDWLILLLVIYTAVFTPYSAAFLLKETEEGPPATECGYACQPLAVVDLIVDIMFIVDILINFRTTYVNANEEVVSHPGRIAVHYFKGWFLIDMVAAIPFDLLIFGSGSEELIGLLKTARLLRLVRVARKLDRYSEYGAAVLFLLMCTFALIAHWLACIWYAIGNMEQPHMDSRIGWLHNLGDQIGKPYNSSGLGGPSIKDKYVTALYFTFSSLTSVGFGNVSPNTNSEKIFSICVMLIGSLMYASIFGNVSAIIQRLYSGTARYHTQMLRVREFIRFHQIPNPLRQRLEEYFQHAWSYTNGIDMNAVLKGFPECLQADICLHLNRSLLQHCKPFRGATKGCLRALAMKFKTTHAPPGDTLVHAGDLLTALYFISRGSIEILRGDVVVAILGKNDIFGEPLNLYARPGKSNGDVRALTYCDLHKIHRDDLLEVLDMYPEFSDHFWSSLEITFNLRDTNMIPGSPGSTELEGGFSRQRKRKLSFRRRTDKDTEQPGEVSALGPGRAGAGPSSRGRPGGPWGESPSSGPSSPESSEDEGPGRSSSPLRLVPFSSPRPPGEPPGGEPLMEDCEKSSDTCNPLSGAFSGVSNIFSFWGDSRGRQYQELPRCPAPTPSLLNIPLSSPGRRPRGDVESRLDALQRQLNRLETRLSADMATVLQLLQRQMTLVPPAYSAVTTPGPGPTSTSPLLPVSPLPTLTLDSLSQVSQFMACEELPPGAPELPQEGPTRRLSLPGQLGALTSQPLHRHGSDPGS

CC12CC3CC(C(=O)N[C@H]4CC[C@@H](N)CC4)(C1)CC(c1ccccc1)(C3)C2.Cl (mixture of isomers) [Example A2]
IC50 (hERG ion channel): > 10 µM | IC50 (Cyp-p450 1A2): > 100 µM | IC50 (Cyp-p450 3A4; CYP Inhibition 3A4 (Midazolam)): > 100 µM | IC50 (Cyp-p450 3A4; CYP Inhibition 3A4 (Testosterone)): 28 µM | Turbidimetric solubility [1]: >500 µM | EC50 [2, 31]: 3.1 µM | Vd (in vivo): 14 L/kg | bioavailability (in vivo): 72% | half-life (in vivo; 10 mg/kg): 7 h | AUC(0-inf) (in vivo; iv, 1 mg/kg): 0.561 µg·h/mL | AUC(0-t) (in vivo; iv, 1 mg/kg): 0.539 ± 0.023 µg·h/mL | Cmax (in vivo; iv, 1 mg/kg): 0.129 ± 0.04 µg/mL | Tmax (in vivo; iv, 1 mg/kg): 0.083 h | Vd (in vivo; iv, 1 mg/kg): 13.9 L/kg | clearance (in vivo; iv, 1 mg/kg): 1.78 L/h/kg | half-life (in vivo; iv, 1 mg/kg): 5.4 h | AUC(0-inf) (in vivo; po, 10 mg/kg): 4.04 µg·h/mL | AUC(0-t) (in vivo; po, 10 mg/kg): 3.59 ± 0.576 µg·h/mL | Cmax (in vivo; po, 10 mg/kg): 0.239 ± 0.046 µg/mL | Tmax (in vivo; po, 10 mg/kg): 6 h | half-life (in vivo; po, 10 mg/kg): 7.1 h | CC50 (in vitro [3]): 10.1 µM | SI50 (CC50/EC50) (EBOV (Mayinga)): 153 | EC50 (EBOV (Mayinga)): 0.43 µM | clearance [4]: less than hepatic blood flow | fraction unbound (in vitro [5]): 0.025 | CC50 (in vitro [6]): 66 µM | Papp A→B (in vitro [7]): 36.1 nm/s | Papp B→A (in vitro [7]): 156 nm/s | efflux ratio (in vitro [7]): 4.32 | P-gp substrate ID Caco-2 Permeability (+Verapamil) Paap Mean A > B (P-gp): 8.47 10^−6 cm s^−1 | P-gp substrate ID Caco-2 Permeability (+Verapamil) Paap Mean B > A (P-gp): 7.45 10^−6 cm s^−1 | EC50 [8, 31]: 0.09 µM | solubility (physchem): > 500 µM | IC50 (Cyp-p450 2C19): > 100 µM | EC50 [9, 31]: 0.27 µM | EC50 ([10]; Zaire ebolavirus, Vero, 24 h): 0.024 µM | fraction unbound (in vitro [11]): 0.014 | EC50 ([12]; Zaire ebolavirus, Vero, 24 h): 0.02 µM | IC50 (Cyp-p450 2D6): > 100 µM | IC50 (Cyp-p450 2B6): > 100 µM | IC50 (Cyp-p450 2C9): > 100 µM | EC50 [13]: > 10 µM

NC(=O)c1nc(F)c[nH]c1=O [favipiravir, reference compound]
half-life in humans [14]: 1 to 4 h | half-life [15]: 1.8 h | SI50 (CC50/EC50) (EBOV (Mayinga)): >59 | EC50 (EBOV (Mayinga)): 17 µM | EC50 (native EBOV virus): 67 µM | CC50 (in vitro [6]): > 1000 µM | drop in viral load (Ebola virus infection): 3-4 log

CCC12CC3CC(C(=O)N[C@@H]4CCNC[C@H]4F)(C1)CC(c1ccccc1)(C3)C2 (mixture of isomers) [Example A18]
EC50 [2]: 3.5 µM | CC50 (Vero cells): 9.8 µM | EC50 [8]: 0.203 µM | EC50 [9]: 0.303 µM | EC50 [10]: 0.03 µM | EC50 [12]: 0.2 µM

CCC12CC3CC(C(=O)NC4CCNCC4(C)C)(C1)CC(c1ccccc1)(C3)C2 (racemic) [Example A52]
EC50 [2]: 1.2 µM | CC50 (Vero cells): 5.7 µM | EC50 [8]: 0.168 µM | EC50 [9]: 0.4 µM | EC50 [10]: 0.03 µM | EC50 [12]: 0.038 µM

CC1(C)CN(C(=O)C23CC4C[C@@](C)(C2)C[C@](c2ccccc2)(C4)C3)CCC1N (stereo partly shown) [Example B8]
Liver Microsome Stability % Remaining after 60 Minutes, Monkey [16]: 30% | EC50 (Sudan Gulu [17]): 0.13 µM | CC50 (in vitro [3]): 12.4 µM | Liver Microsome Stability % Remaining after 60 Minutes, Mouse [18]: 47% | EC50 [8, 31]: 0.084 µM | Liver Microsome Stability % Remaining after 60 Minutes, Guinea Pig [19]: 56% | EC50 [9, 31]: 0.058 µM | EC50 ([10]; Zaire ebolavirus, Vero, 24 h): 0.05 µM | Sudan Gulu SI (CC50/EC50) (Sudan Gulu [20]): 128 | EC50 ([12]; Zaire ebolavirus, Vero, 24 h): 0.012 µM | Liver Microsome Stability % Remaining after 60 Minutes, Human [21]: 76%

C[C@H]1C[C@@H](NC(=O)C23CC4C[C@@](C)(C2)C[C@](c2ccccc2)(C4)C3)CCN1 [Example B4]
Ebola Zaire SI (CC50/EC90) (Ebola Zaire [22]): >35 | Liver Microsome Stability % Remaining after 60 Minutes, Monkey [16]: 54% | EC50 [2, 31]: > 3 µM | Sudan Gulu SI (CC50/EC50) (Sudan Gulu [23]): 155 | EC90 (Ebola Zaire [24]): 2.9 µM | CC50 (in vitro [3]): 22.5 µM | Liver Microsome Stability % Remaining after 60 Minutes, Mouse [18]: 92% | Ebola Zaire SI (CC50/EC50) (Ebola Zaire [25]): 54 | EC50 [8]: 0.104 µM | EC50 [9]: 0.166 µM | EC50 [12]: 0.013 µM | Liver Microsome Stability % Remaining after 60 Minutes, Human [21]: 82% | EC50 (Ebola Zaire [26]): 0.62 µM | EC50 (Sudan Gulu [27]): 0.15 µM

C[C@]12CC3CC(C(=O)N4CCC(N)CC4)(C1)C[C@@](c1ccccc1)(C3)C2 [Example B7]
Liver Microsome Stability % Remaining after 60 Minutes, Monkey [16]: 53% | EC50 [2, 31]: 8 µM | EC50 (Sudan Gulu [28]): 0.36 µM | CC50 (in vitro [3]): 31 µM | Liver Microsome Stability % Remaining after 60 Minutes, Mouse [18]: 77% | EC50 [8, 31]: 0.072 µM | Liver Microsome Stability % Remaining after 60 Minutes, Guinea Pig [19]: 72% | EC50 [9, 31]: 0.116 µM | EC50 ([10]; Zaire ebolavirus, Vero, 24 h): 0.04 µM | EC50 ([12]; Zaire ebolavirus, Vero, 24 h): 0.045 µM | Liver Microsome Stability % Remaining after 60 Minutes, Human [21]: 86% | EC50 (Ebola Zaire [26]): 1.9 µM | EC50 (Sudan Gulu [27]): 0.17 µM | EC50 (Ebola Zaire [29]): 0.88 µM

C[C@@]12CC3CC(C(=O)NC4CCNCC4)(CC(c4ccccc4)(C3)C1)C2 [Example B1]
Ebola Zaire SI (CC50/EC90) (Ebola Zaire [22]): >48 | Liver Microsome Stability % Remaining after 60 Minutes, Monkey [16]: 83% | EC50 [2, 31]: > 3 µM | Sudan Gulu SI (CC50/EC50) (Sudan Gulu [23]): 285 | EC90 (Ebola Zaire [24]): 2.1 µM | CC50 (in vitro [3]): 12.3 µM | Liver Microsome Stability % Remaining after 60 Minutes, Mouse [18]: 87% | Ebola Zaire SI (CC50/EC50) (Ebola Zaire [25]): 51 | EC50 [8, 31]: 0.238 µM | EC50 [9, 31]: 0.25 µM | EC50 ([10]; Zaire ebolavirus, Vero, 24 h): 0.01 µM | EC50 ([12]; Zaire ebolavirus, Vero, 24 h): 0.034 µM | Liver Microsome Stability % Remaining after 60 Minutes, Human [21]: 81% | EC50 (Ebola Zaire [26]): 0.64 µM | EC50 (Sudan Gulu [27]): 0.12 µM | EC50 (Ebola Zaire [29]): > 3.2 µM

CCC12CC3CC(C(=O)N4CCC(N)CC4)(C1)CC(c1ccccc1)(C3)C2 (racemic) [Example A32]
EC50 [2, 31]: 7.6 µM | Ebola Zaire SI (CC50/EC50) (Ebola Zaire [30]): 64 | CC50 (in vitro [3]): 6 µM | EC50 [8, 31]: 0.09 µM | EC50 [9, 31]: 0.215 µM | EC50 ([10]; Zaire ebolavirus, Vero, 24 h): 0.065 µM | EC50 ([12]; Zaire ebolavirus, Vero, 24 h): 0.042 µM | EC50 (Ebola Zaire [29]): 1.33 µM

C[C@H]1C[C@@H](NC(=O)C23CC4C[C@@](C)(C2)C[C@](c2ccccc2)(C4)C3)CCN1 [Example B15]
CC50 (Vero cells): 14.8 µM | EC50 [8]: 0.21 µM | EC50 [9]: 0.61 µM | EC50 [12]: 0.035 µM

CC12CC3CC(C(=O)N4CCC(N)C(C)(C)C4)(C1)CC(c1ccccc1)(C3)C2 (racemic) [Example A35]
Liver Microsome Stability % Remaining after 60 Minutes, Monkey [16]: 22% | Sudan Gulu SI (CC50/EC50) (Sudan Gulu [23]): 136 | CC50 (in vitro [3]): 10.2 µM | Liver Microsome Stability % Remaining after 60 Minutes, Mouse [18]: 42% | Ebola Zaire SI (CC50/EC50) (Ebola Zaire [25]): 29 | EC50 [8, 31]: 0.071 µM | Liver Microsome Stability % Remaining after 60 Minutes, Guinea Pig [19]: 45% | EC50 [9, 31]: 0.08 µM | EC50 ([10]; Zaire ebolavirus, Vero, 24 h): 0.02 µM | EC50 ([12]; Zaire ebolavirus, Vero, 24 h): 0.01 µM | Liver Microsome Stability % Remaining after 60 Minutes, Human [21]: 97% | EC50 (Ebola Zaire [26]): 1.14 µM | EC50 (Sudan Gulu [27]): 0.14 µM
